Here are results for two molecules from patent publication US8889354B2, “Methods for the identification, assessment, and treatment of patients with cancer therapy” (Millennium Pharmaceuticals, Inc., priority 2005, dated 2014).

Like-named read-outs stand apart in the source and are kept apart here.

For assay [1], the system named is multiple myeloma. The assay is described as follows: Response of the pharmacogenomic patient subset (studies 024, 025, 039, 040), EBMT criteria. Type of assay: in vivo, human. As to conditions: for NP, number of patients classified as progression / NR, number of patients classified as responder / NS, number of patients classified as stable disease: best response, discovery samples. As for the experimental part:
Patients assigned to the high-dose dexamethasone group received treatment for a maximum of 280 days. Patients in this treatment group received up to four 5-week treatment cycles, followed by up to five 4-week treatment cycles. Within each 5-week treatment cycle, the patient received dexamethasone 40 mg/day PO, once daily on Days 1 to 4, 9 to 12, and 17 to 20 of a 35-day cycle. Within each 4-week treatment cycle, the patient received dexamethasone 40 mg/day PO once daily on Days 1 to 4 of a 28 day cycle.
Pharmacogenomic tumor samples (bone marrow aspirate) were collected from patients for evaluation of the expression of global mRNA levels.
For those patients who participated in the pharmacogenomic portion of the study, correlation between RNA expression levels and response to therapy were evaluated descriptively. In addition, duration of response, time to disease progression, quality of life, and overall patient survival may be analyzed using RNA expression as a factor.
A total of 224 patient samples were assessed for pharmacogenomic analyses. […] All pharmacogenomic analyses relied on the European Group for Blood and Marrow Transplant (EBMT) criteria of response category.
The data set consisted of discovery samples matched with the patient's outcome as measured by best response and time to disease progression. For best response, each patient was classified as responder (NR), stable disease (NS), or progression (NP). For marker identification, the three response classes were further grouped into responders vs. non-responders (stable and progression) (NP+S), responders vs. progression, or progression vs. others (stable and responders) (NR+S). The analyses further separated the patients based on the treatment they received. […] Thus, the responder vs. non-responder analysis utilizes 79 vs. 84 samples. The responder vs. progression analysis utilizes 79 vs. 41 and the progression vs. other analysis utilizes 41 vs. 122 samples. For the dexamethasone analysis NR=25, NS=16, and NP=21. Accordingly, the responder vs. non-responder analysis utilizes 25 vs. 37 samples. The responder vs. progression analysis utilizes 25 vs. 21 and the progression vs. other analysis utilizes 21 vs. 41 samples.

The test system of assay [2] is relapsed multiple myeloma. The note with it: cited from earlier work.
Assay [3] deals with multiple myeloma. The note with it: bortezomib alone, cited from earlier work.

For the molecule `CC(C)C[C@H](NC(=O)[C@H](Cc1ccccc1)NC(=O)c1cnccn1)B(O)O` [bortezomib, N-pyrazinecarbonyl-L-phenylalanine-L-leucineboronic acid], in the assay on multiple myeloma [1] (Study 024), the “CR, number of patients” value is reported as 1; the “IE, number of patients” value came to 0; the “MR, number of patients” value came to 0; the “NC, number of patients” value is listed as 1. Further, in the assay on multiple myeloma [1] (Study 024), the “PD, number of patients” value is given as 4 and the “PR, number of patients” value is on record as 1. Further, in the assay with multiple myeloma [1] (Study 025), the “CR, number of patients” value is given as 2; the “IE, number of patients” value was 5; the “MR, number of patients” value stood at 3; the “NC, number of patients” value was found to be 10. Moreover, in the assay with multiple myeloma [1] (Study 025), the “PD, number of patients” value stood at 14 and the “PR, number of patients” value came out at 10. Besides, in the assay on multiple myeloma [1] (Study 040), the “CR, number of patients” value came out at 1; the “IE, number of patients” value amounted to 2; the “MR, number of patients” value is reported as 6; the “NC, number of patients” value was determined as 13. In the assay with multiple myeloma [1] (Study 040), the “PD, number of patients” value was found to be 8 and the “PR, number of patients” value came to 20. Besides, in the assay with multiple myeloma [1], the “NP, number of patients classified as progression” value is recorded as 41; the “NR, number of patients classified as responder” value is 79; the “NS, number of patients classified as stable disease” value amounted to 43. For the same molecule, in the assay with multiple myeloma [1] (pharmacogenomic patient set), the “CR+PR rate” value is 35% and the overall response rate amounted to 46.4%. The “CR+PR rate” value in assay [2] (bortezomib 1.0 mg/m^2) is 30%. Further, the “CR+PR rate” value in assay [2] (bortezomib 1.3 mg/m^2) is 38%. The “CR+PR rate” value with multiple myeloma [3] (53 of 193 patients) is on record as 27%. For the same molecule, the “overall response rate (CR+PR+MR)” value with multiple myeloma [3] (67 of 193 patients) was 35%.

Take `C[C@@H]1C[C@H]2[C@@H]3CCC4=CC(=O)C=C[C@]4(C)[C@@]3(F)[C@@H](O)C[C@]2(C)[C@@]1(O)C(=O)CO` [dexamethasone]: in the assay on multiple myeloma [1], the “NP, number of patients classified as progression” value worked out at 21; the “NR, number of patients classified as responder” value stood at 25; the “NS, number of patients classified as stable disease” value turned out to be 16.
